Experimental data from patent US20240041830A1, “CIRCULATING BIOMARKERS OF RESPONSE TO PD-1/PD-L1 BLOCKADE AND GSK-3 INHIBITION” (Brown University, priority 2022, published 2024).

Tests used:
HT-29 = assay: Western blot analysis; format: cell-based, human; conditions: 100 ng/mL and 250 ng/mL IFN-γ
Procedure: (§1) Pyroptosis assay. Recombinant Human TNF-α (Cat #300-01A, PeproTech, Rocky Hill, NJ, USA) and Recombinant Human IFN-γ (Cat #300-02, PeproTech, Rocky Hill, NJ, USA) were purchased for use in western blot analysis while rhTRAIL was generated in-house. See Kim et al., J. Biol. Chem., 279, 40044-40052 (2004).
(§2) Western blot analysis. Cells were plated in a 6-well plate and incubated overnight before the spent media was replaced with drugged media. Drug treatment lasted for indicated durations. Protein was extracted using radioimmunoprecipitation (RIPA) assay buffer (Cat #R0278, Sigma-Aldrich, St. Louis, MO, USA) containing cOmplete™, Mini, EDTA-free Protease Inhibitor Cocktail (Cat #4693159001, Roche, Basel, Switzerland) from sub-confluent cells. Denaturing sample buffer was added, samples were boiled at 95° C. for ten minutes, and an equal amount of protein lysate was electrophoresed through NuPAGE™ 4 to 12%, bis-Tris, 1.5 mm, Mini Protein Gels (Invitrogen, Waltham, MA, USA) then transferred to PVDF membranes. The PVDF membrane was blocked with 5% non-fat milk (Sigma-Aldrich, St. Louis, MO, USA) in 1× TTBS. Primary antibodies were incubated with the transferred PVDF membrane in blocking buffer at 4° C. overnight. Secondary antibodies included Goat anti-Rabbit IgG (H+L) Secondary Antibody, HRP (Cat #31460, Invitrogen, Waltham, MA, USA), and Goat anti-Mouse IgG (H+L) Secondary Antibody, HRP (Cat #31430, Invitrogen, Waltham, MA, USA). The signal was detected using Pierce™ ECL Western Blotting Substrate (Cat #32106, Thermo Scientific, Waltham, MA, USA) and a Syngene Imaging System (RRID: SCR_015770).
(§3) Elraglusib uprequlates tumor cell PD-L1 and proapoptotic pathway expression as well as downregulates immunosuppressive/angiogenic protein expression and pro-survival pathways. The inventors performed Western blot analyses on colorectal cancer cells (HCT-116, HT-29) treated with elraglusib over a 72-hour time course. […] The inventors observed increases in PD-L1 expression as the treatment duration increased. To further elucidate the elraglusib-mediated effects on tumor cell survival, the inventors probed for survival factors Bcl-2 and Survivin and noted decreases in protein expression in both cell lines, especially at the later timepoints (forty-eight hours, seventy-two hours). […] HCT116 cells are heterozygous for β-catenin, harboring one wild-type allele and one mutant allele with inactivation of one of the residues phosphorylated by GSK-3β that is frequently mutated in tumors. Kaler, Augenlicht, & Klampfer, PLoS ONE, 7, e45462 (2012). HT-29, KM12C, and SW480 cells harbor APC mutations. Rowan et al., Proc. Natl. Acad. Sci. USA, 97, 3352 (2000).

HCT-116 = assay: Western blot analysis; format: cell-based, human; conditions: 100 ng/mL and 250 ng/mL IFN-γ
Procedure: as §1, §2, §3

IFN-γ: Recombinant Human IFN-γ (PeproTech) used in western blot analysis
gasdermin B expression (HT-29): increase | gasdermin B expression (HCT-116): increase
